Assay results taken from patent publication US10912815B2, “Inhibitors of mitochondrial fission and methods of use thereof” (The Board of Trustees of the Leland Stanford Junior …, priority 2011, dated 2021).
Residues, ends and D or L forms follow the SMILES beside them.

Tests used:
Recombinant protein Drp1 = Recombinant protein Drp1 (Homo sapiens, UniProt O00429); test: In vitro GTPase assay, recombinant Drp1; type: biochemical; conditions: for inhibition in the GTPase activity of recombinant Drp1: recombinant Drp1 25 ng, 30 min incubation with peptide, FIG. 2A
Protocol: (§1) First, mitochondrial fission inhibitor constructs were tested to determine what, if any, effects each peptide had on enzyme (GTPase) activity. Recombinant protein Drp1, Mfn1, OPA1 or dynamin-1 (25 ng) was incubated with the indicated modulator peptides for 30 min. GTPase activity was assayed in vitro using a GTPase assay kit (Innova Biosciences, Littleton, USA, or Novus Biologicals, Littleton, Colo.) according to manufacturer's instructions.

[1] = system: isolated mouse liver mitochondria with Drp1 recombinant protein; test: Superoxide production of isolated mouse liver mitochondria after addition of recombinant Drp1; type: biochemical; conditions: isolated mouse liver mitochondria 50 μg, Drp1 50 ng, P110 1 μM, p<0.05, n=3, FIG. 6C
Protocol: Mitochondrial membrane potential was also determined using TMRM (tetramethylrhodamine methylester). Fifty μg of mitochondria were incubated with recombinant Drp1 (50 ng) followed by incubation with TMRM (0.5 μM) in the presence or absence of P110 (1 μM) or NAC (2.5 mM). Fluoresence detection was performed using black 96-well plates in a fluorescence microplate reader at 560 nm excitation and 690 nm emission and potential was assessed by quenching of the fluorescent signal. The data are presented as mean±S.E. of percentage relative to control mitochondria from three independent experiments (FIG. 6B, #, p<0.05 vs. control cells; *, p<0.05; **, P<0.01 vs. MPP+- or CCCP-treated cells). Isolated mouse liver mitochondria (50 μg) were incubated with Drp1 recombinant protein (50 ng) in the presence or absence of P110 (1 μM). A kinetic change of mitochondrial superoxide production was determined by using MITOSOX™ (red mitochondrial superoxide indicator). […] Mitochondrial membrane potential of isolated mouse liver mitochondria was determined by TMRM, as described above, in the indicated groups. […] Protein levels of cytochrome c in the mitochondria were determined by western blot analysis with anti-cytochrome c antibodies in the indicated groups (insert, FIG. 6D). Total ROS production was determined by staining SH-SY5Y cells with CM2HDCFA (1 μM […] at 37° C.) in the indicated groups. […]

[2] = system: isolated mouse liver mitochondria with Drp1 recombinant protein; test: Membrane potential of isolated mouse liver mitochondria incubated with Drp1 (TMRM); type: biochemical; conditions: P110 1 μM, NAC 2.5 mM, FIG. 6D bottom
Protocol: Mitochondrial membrane potential was also determined using TMRM (tetramethylrhodamine methylester). Fifty μg of mitochondria were incubated with recombinant Drp1 (50 ng) followed by incubation with TMRM (0.5 μM) in the presence or absence of P110 (1 μM) or NAC (2.5 mM). Fluoresence detection was performed using black 96-well plates in a fluorescence microplate reader at 560 nm excitation and 690 nm emission and potential was assessed by quenching of the fluorescent signal. The data are presented as mean±S.E. of percentage relative to control mitochondria from three independent experiments (FIG. 6B, #, p<0.05 vs. control cells; *, p<0.05; **, P<0.01 vs. MPP+- or CCCP-treated cells). Isolated mouse liver mitochondria (50 μg) were incubated with Drp1 recombinant protein (50 ng) in the presence or absence of P110 (1 μM). A kinetic change of mitochondrial superoxide production was determined by using MITOSOX™ (red mitochondrial superoxide indicator). The data are presented as mean±S.E. of percentage relative to the value at basal level from three independent experiments (FIG. 6C, #, p<0.05 vs. control mitochondria; *, p<0.05 vs. mitochondria with the addition of Drp1). Mitochondrial membrane potential of isolated mouse liver mitochondria was determined by TMRM, as described above, in the indicated groups. NAC (2.5 mM) was used as a positive control (FIG. 6D). Protein levels of cytochrome c in the mitochondria were determined by western blot analysis with anti-cytochrome c antibodies in the indicated groups (insert, FIG. 6D). Total ROS production was determined by staining SH-SY5Y cells with CM2HDCFA (1 μM […] at 37° C.) in the indicated groups. The data are presented as mean±S.E. of percentage relative to control group from three independent experiments (FIG. 6E, *, p<0.05 vs. either MPP+ or CCCP treated-group; #, p<0.05 vs. control group).
The mitochondrial membrane potential of isolated mouse liver mitochondria was then measured in the presence or absence of P110.

[3] = target: T1, Drp1 association with the mitochondria (Homo sapiens, UniProt O00429); test: Association of recombinant Drp1 (GST-Drp1) with isolated mouse liver mitochondria; type: binding; conditions: peptide 1 μM, GST-Drp1, FIG. 2C
T1 construct: GST (N); host or cells: recombinant GST-Drp1 of unstated origin; mitochondria from mouse liver tissue
Protocol: If the peptides designed do represent PPI surfaces between Drp1 and Fis1, the peptides should inhibit the association of Drp1 with the mitochondria. To obtain isolated mitochondria, SH-5YSH cells were washed with cold phosphate-buffered saline (PBS) and incubated on ice in lysis buffer (250 mM sucrose, 20 mmol/L HEPES-NaOH, pH 7.5, 10 mmol/L KCl, 1.5 mmol/L MgCl2, 1 mmol/L EDTA, protease inhibitor cocktail, phosphatase inhibitor cocktail) for 30 minutes. Cells were scraped and then disrupted 10 times by repeated aspiration through a 25 gauge needle, followed by a 30 gauge needle. Mouse liver tissue was minced and ground by pestle in lysis buffer. The homogenates were spun at 800 g for 10 min at 4° C. and the resulting supernatants were spun at 10,000 g for 20 minutes at 4° C. The pellets were washed with lysis buffer and spun at 10,000 g again for 20 minutes at 4° C. The final pellets were suspended in lysis buffer containing 1% Triton X-100 and were mitochondrial-rich lysate fractions.
Mitochondria isolated from mouse liver were incubated with recombinant Drp1 (GST-Drp1). Drp1 bound to mitochondrial preparation and only P110 (1 μM) reduced this association by >60% (p<0.01, FIG. 2C); peptide carrier TAT47-57 or the other Drp1-derived peptides had no effect. The mitochondrial membrane protein VDAC was used as marker and loading control.

SH-SY5Y cells = conditions: peptides 1 μM each, MPP+ 2 mM for 24 hours, FIG. 9E
Protocol: Cell viability of stressed SH-SY5Y cells was measured by MTT assay.
In another experiment, Human SH-SY5Y cells were treated with Drp1 P108, P109 or P110 or Fis1 P111, P112 or P113 (0.5 μM) for 15 min followed by treatment with MPP+(1 mM for 24 hrs). The cell viability was then determined by MTT test.

Dnm1 (yeast Drp1) = target: T2, Dnm1 (yeast Drp1) (Saccharomyces cerevisiae, UniProt P54861); conditions: yeast and mammals, by blocking Dnm1 polymerization; cited from earlier work
T2 sequence (P54861 1-757): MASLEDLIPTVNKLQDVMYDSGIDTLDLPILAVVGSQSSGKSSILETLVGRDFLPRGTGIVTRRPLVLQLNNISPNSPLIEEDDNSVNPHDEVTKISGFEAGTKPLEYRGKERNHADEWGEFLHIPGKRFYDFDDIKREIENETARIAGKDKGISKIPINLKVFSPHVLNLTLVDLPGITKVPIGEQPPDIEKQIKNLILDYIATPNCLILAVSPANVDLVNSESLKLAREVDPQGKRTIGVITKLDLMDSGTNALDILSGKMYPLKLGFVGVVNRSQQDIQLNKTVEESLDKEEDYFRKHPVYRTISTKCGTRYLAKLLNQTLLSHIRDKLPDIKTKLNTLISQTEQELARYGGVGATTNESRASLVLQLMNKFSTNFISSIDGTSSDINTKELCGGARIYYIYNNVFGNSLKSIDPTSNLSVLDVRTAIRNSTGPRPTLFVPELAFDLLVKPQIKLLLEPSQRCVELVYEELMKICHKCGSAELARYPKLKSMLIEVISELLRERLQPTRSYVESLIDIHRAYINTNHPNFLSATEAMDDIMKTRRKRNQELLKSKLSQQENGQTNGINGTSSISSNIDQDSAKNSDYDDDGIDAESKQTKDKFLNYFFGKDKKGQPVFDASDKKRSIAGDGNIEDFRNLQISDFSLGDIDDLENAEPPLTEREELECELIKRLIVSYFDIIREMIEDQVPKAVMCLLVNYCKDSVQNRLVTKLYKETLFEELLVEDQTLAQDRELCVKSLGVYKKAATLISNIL

Mfn1 = target: T3, Mfn1 (Homo sapiens, UniProt Q8IWA4); test: In vitro GTPase assay, recombinant Mfn1; type: biochemical; conditions: p<0.05, n=3, FIG. 2F
T3 sequence (Q8IWA4 1-741): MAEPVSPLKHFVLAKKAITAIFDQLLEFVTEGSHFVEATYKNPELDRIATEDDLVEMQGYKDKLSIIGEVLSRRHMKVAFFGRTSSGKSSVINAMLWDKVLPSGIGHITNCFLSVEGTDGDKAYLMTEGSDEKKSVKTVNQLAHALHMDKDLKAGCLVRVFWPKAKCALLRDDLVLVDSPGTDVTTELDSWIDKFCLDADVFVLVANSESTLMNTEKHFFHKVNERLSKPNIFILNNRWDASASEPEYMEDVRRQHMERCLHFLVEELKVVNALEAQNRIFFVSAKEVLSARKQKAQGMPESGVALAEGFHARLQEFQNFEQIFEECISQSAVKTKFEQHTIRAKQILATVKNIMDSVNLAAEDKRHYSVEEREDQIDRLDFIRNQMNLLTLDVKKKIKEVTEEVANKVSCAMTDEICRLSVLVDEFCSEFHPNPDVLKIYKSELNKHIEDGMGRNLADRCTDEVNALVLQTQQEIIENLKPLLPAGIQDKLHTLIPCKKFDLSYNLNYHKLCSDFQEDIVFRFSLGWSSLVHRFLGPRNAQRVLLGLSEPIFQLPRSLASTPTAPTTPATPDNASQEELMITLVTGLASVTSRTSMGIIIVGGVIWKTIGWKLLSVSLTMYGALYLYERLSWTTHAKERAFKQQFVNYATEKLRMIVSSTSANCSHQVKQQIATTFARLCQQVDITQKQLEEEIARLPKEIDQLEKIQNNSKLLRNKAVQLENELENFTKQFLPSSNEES
Protocol: as §1

OPA1 = target: T4, OPA1 (Homo sapiens, UniProt O60313); test: In vitro GTPase assay, recombinant OPA1; type: biochemical; conditions: p<0.05, n=3, FIG. 2F
T4 sequence (O60313 88-960): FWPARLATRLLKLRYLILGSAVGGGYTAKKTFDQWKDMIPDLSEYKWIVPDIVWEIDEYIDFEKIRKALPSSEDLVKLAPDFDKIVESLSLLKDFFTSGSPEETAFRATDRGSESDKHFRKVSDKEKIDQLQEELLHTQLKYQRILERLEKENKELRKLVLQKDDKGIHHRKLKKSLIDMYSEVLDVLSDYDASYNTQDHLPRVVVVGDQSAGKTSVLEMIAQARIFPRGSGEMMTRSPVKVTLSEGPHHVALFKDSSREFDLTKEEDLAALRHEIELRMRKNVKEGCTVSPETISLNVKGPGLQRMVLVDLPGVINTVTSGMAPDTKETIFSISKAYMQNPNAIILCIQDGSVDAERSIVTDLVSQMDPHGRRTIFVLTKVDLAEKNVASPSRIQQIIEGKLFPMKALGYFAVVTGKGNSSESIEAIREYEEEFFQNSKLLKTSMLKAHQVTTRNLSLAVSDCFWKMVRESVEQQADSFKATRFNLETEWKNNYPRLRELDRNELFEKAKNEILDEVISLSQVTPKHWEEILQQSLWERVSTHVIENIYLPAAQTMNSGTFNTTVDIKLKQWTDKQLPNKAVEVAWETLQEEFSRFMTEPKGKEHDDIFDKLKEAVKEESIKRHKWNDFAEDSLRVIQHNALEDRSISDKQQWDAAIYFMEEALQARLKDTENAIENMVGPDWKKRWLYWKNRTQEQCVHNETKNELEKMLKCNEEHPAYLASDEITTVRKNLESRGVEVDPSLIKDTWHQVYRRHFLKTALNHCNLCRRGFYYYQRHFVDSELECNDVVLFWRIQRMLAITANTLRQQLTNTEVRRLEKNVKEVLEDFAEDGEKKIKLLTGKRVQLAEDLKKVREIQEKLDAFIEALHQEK
Protocol: as §1

Chain of Recombinant protein Drp1 (O00429 1-710 isoform O00429-3): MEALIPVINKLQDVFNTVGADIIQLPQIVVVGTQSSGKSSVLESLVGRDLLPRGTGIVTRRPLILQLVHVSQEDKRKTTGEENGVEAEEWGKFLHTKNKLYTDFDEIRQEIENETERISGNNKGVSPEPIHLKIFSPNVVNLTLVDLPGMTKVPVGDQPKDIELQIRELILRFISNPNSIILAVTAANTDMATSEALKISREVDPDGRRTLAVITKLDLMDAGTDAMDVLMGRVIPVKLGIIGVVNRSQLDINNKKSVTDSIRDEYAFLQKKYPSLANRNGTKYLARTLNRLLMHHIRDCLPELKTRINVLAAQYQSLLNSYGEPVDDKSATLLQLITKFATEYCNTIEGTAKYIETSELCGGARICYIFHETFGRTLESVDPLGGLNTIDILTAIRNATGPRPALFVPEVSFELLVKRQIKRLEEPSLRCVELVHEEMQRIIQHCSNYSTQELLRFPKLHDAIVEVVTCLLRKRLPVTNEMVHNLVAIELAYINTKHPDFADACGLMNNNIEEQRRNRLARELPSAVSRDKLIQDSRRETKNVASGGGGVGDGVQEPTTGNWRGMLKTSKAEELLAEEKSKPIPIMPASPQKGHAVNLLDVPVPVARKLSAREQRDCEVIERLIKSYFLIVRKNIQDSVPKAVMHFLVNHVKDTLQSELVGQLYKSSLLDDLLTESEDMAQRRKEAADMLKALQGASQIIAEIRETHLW
T1 sequence (O00429 1-710 isoform O00429-3): as above

Molecule: Drp1 K38A: dominant negative mutant of Drp1, which inhibits Drp1 GTPase activity and fission activity; positive control
- inhibition in the GTPase activity of recombinant Drp1 (Recombinant protein Drp1): ~70%
- Drp1-induced ROS (superoxide) elevation in the mitochondria [1]: abolished
- mitochondrial membrane potential (MMP) of isolated mitochondria after Drp1 addition [2]: similar

Molecule: TAT47-57: cell permeating TAT protein-derived peptide carrier, used alone as control peptide
- reduction of association of Drp1 with mitochondrial preparation [3]: no effect

Molecule: N=C(N)NCCC[C@H](NC(=O)[C@H](CCCCN)NC(=O)[C@H](CCCCN)NC(=O)[C@H](CCCNC(=N)N)NC(=O)[C@H](CCCNC(=N)N)NC(=O)[C@H](CCC(N)=O)NC(=O)[C@H](CCCNC(=N)N)NC(=O)[C@H](CCCNC(=N)N)NC(=O)[C@@H](N)CCCNC(=N)N)C(=O)NCC(=O)N[C@@H](Cc1ccc(O)cc1)C(=O)NCC(=O)NCC(=O)N[C@@H](CCCCN)C(=O)NCC(=O)N[C@@H](CO)C(=O)N[C@@H](CCCCN)C(=O)N[C@@H](CCC(=O)O)C(=O)N[C@@H](CCC(=O)O)C(=O)N[C@@H](CCC(N)=O)C(=O)N[C@@H](CCCNC(=N)N)C(=O)N[C@@H](CC(=O)O)C(N)=O [P112] (H-RRRQRRKKRGYGGKGSKEEQRD-NH2)
- specifically inhibited Drp1 GTPase activity (Recombinant protein Drp1; in vitro GTPase assay, n=3, first statement of b271): 50%
- inhibition in the GTPase activity of recombinant Drp1 (Recombinant protein Drp1): no significant effect

Molecule: CC(=O)N[C@@H](CS)C(=O)O [NAC, N-Acetyl cysteine, reference compound]
- mitochondrial membrane potential (MMP) of isolated mitochondria after Drp1 addition [2]: prevented the dissipated MMP

Molecule: RRRQRRKKRGYGGELLPKG (RRRQRRKKRGYGGELLPKGS) [P113]
- inhibition in the GTPase activity of recombinant Drp1 (Recombinant protein Drp1): no significant effect
- cell viability (MTT) (SH-SY5Y cells): no significant effect

Molecule: COc1cc(-n2c(=S)[nH]c3ccccc3c2=O)c(Cl)cc1Cl [Mdivi-1]
- mitochondrial division (Dnm1 (yeast Drp1)): inhibits mitochondrial division

Molecule: CC(C)C[C@H](NC(=O)[C@H](CCCCN)NC(=O)CNC(=O)CNC(=O)[C@H](Cc1ccc(O)cc1)NC(=O)CNC(=O)[C@H](CCCNC(=N)N)NC(=O)[C@H](CCCCN)NC(=O)[C@H](CCCCN)NC(=O)[C@H](CCCNC(=N)N)NC(=O)[C@H](CCCNC(=N)N)NC(=O)[C@H](CCC(N)=O)NC(=O)[C@H](CCCNC(=N)N)NC(=O)[C@H](CCCNC(=N)N)NC(=O)[C@@H](N)CCCNC(=N)N)C(=O)N[C@@H](CO)C(=O)N[C@@H](C)C(=O)N[C@@H](CCCNC(=N)N)C(=O)N[C@@H](CCC(=O)O)C(=O)N[C@@H](CCC(N)=O)C(=O)N[C@@H](CCCNC(=N)N)C(=O)N[C@@H](CC(=O)O)C(N)=O [P109] (H-RRRQRRKKRGYGGKLSAREQRD-NH2)
- inhibition in the GTPase activity of recombinant Drp1 (Recombinant protein Drp1): 40%
- GTPase activity of MFN1 (increased) (Mfn1): 229%±10
- GTPase activity of OPA1 (increased) (OPA1): 177%±13
